Legend:
[1] = tested on: NFYb mRNA; assay: Hippocampal NFYb mRNA in ApoE4-TR:5xFAD mice; assay type: in vivo; settings: 20 mg/Kg BID, 56 days, vs vehicle
Method: The active (-) enantiomer, DDL-218, underwent efficacy testing in ApoE4-TR:5xFAD mice[27] that were 6-7.5 months old at the start of treatment. ApoE4-TR:5xFAD male and female mice received either 20 mg/Kg DDL-218 BID (~ 8- to10-hour interval; total daily dose of 40 mkd) on weekdays and a single 40 mg/Kg dose on weekends (n = 12) or vehicle-only (n = 11); 8 C57BL/6 mice received vehicle-only as behavioral controls. Dosing was by the oral route and by oral feeding using a pipette as previously described, not gavage, as it is safer for repeated oral dosing than gavage. The dose of 20 mg/kg BID (40 mkd) was selected based on findings from PK analysis and was the highest feasible in the formulation used for oral feeding (compound is first solubilized in water, then mixed strawberry syrup diluted in water, for a final vehicle that is 25% syrup and 75% water). […]
Total RNA was isolated from cells or brain tissue (Qiagen RNEasy kit). Total RNA (0.5–1.0 µg) mRNA was then converted to cDNA (SuperScript™ III First-Strand Synthesis SuperMix kit; Thermo Fisher), and gene mRNA levels were measured using a gene-specific qRT-PCR Taqman assays (Thermo Fisher). Gene mRNA levels were normalized to GAPDH mRNA levels measured either in the same cDNA sample or in the same qPCR reaction using multiplexing of gene-of-interest/VIC and GAPDH/FAM, normalized by the delta-delta-Ct method.

[2] = Observation of mice behavior in the PK study; assay type: in vivo; settings: oral gavage 10 or 30 mg/Kg
Method: C57BL/6J mice were administered DDL-214, -218, or -219 (n = 3 per compound) by oral gavage at a dose of 30 mg/kg in a volume of 5 mL/Kg based on mouse weight. One hour later, mice were euthanized by pentobarbital over-anesthesia and trans-cardial collection of blood for isolation of plasma by centrifugation at 10,000 x g for 10 min at 4 °C. Brain tissue was collected for analysis, frozen on dry ice and stored at -80 °C before analysis.

[3] = Brain tissue binding (dialysis of brain homogenate); assay type: in vitro ADME; settings: pH 7.4, brain homogenate 20 mg/mL, 2 µM compound, 37 °C, read-out: Brain Tissue Binding [fu,bound (%)]
Method: Figure S3B. SirT1 protein levels in N2a-E4 cells after A03 and DDL-214 treatment. Compound treatment was done at 5 and 50 µM. SirT1 levels were measured by AlphaLISA followed and normalized to protein […]
DDL-218 Physiochemical Properties
Brain Tissue Binding [fu,bound (%)]
Brain tissue was homogenized in PBS (pH 7.4) (1: 3 weight(mg)/volume(µL)) and the protein concentration of was determined using the Micro BCA™ Protein Assay Kit (Thermo Fisher Scientific, Cat#23235). Brain homogenate was diluted to 20 mg/mL in PBS (pH 7.4) and added to Slide-A-Lyzer™ MINI Dialysis Devices, 10K MWCO dialysis cups (Thermo Fisher Scientific, Cat#PI88401) in 48-well plate containing PBS (500 µL; pH 7.4). 1 µL of […] compound was added to the brain homogenate (Final Concentration: 2 µM compound, 0.5% DMSO) and incubated on a rocker for 4.5 hours at 37 °C. 50 µL of brain homogenate (within the dialysis cup) and PBS (within the 48-well plate) were transferred to new microcentrifuge tubes containing 200 µL of quenching reagent (100% Acetonitrile) containing internal standard. […]
The % of the unbound drug (fu,bound) was calculated using the following equation: fu,bound = [normalized peak area in buffer side / normalized peak area in brain side] x 100 Liver Microsome Stability [t1/2 (min)] […]

In the case of `CC(N)C(=O)OC(C)(C)Cc1ccncc1` (stereo not drawn) [DDL-218], the “hippocampal NFYb mRNA” value [1] is reported as “significantly increased”, the “changes in mice behavior indicative of drug-induced toxicity” value [2] is reported as “No notable changes in mice behavior” and the fraction unbound at 4.5 h, 2 µM [3] is reported as 0.43.
